Values belong to the compound of their own block, whether it stands above or below them. Activity calls are given as the source filed them.
Key:
[1] = biological target: Tyrosine-protein kinase JAK2 (Homo sapiens, UniProt O60674); format: functional;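 also: JAK2 tested as one member of a kinase panel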
[2] = biological target: Tyrosine-protein kinase JAK3 (Homo sapiens, UniProt P52333); format: functional
Interleukin-8 [3] = biological target: T1, Interleukin-8 (Homo sapiens, UniProt P10145); assay: Dose Response confirmation of uHTS small molecule hits for cystic fibrosis induced NFkb Inhibitors in a PAF-induced IL8 counterscreen.; format: functional; settings: read-out: IC50_Mean
T1 sequence (P10145 whole entry): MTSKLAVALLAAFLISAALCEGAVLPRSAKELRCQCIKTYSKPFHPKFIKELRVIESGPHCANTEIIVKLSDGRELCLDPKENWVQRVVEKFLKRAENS

[4] = Counterscreen for activators of the function of SWI/SNF related, matrix associated, actin dependent regulator of chromatin, subfamily a, member 2 (SMARCA2, BRM): Luminescence-based cell-based high throughput dose response assay to identify non-selective compounds using the VP16 reporter assay.; format: functional
Interleukin-8 [5] = biological target: T1, Interleukin-8; assay: Dose Response confirmation of uHTS small molecule hits for cystic fibrosis induced NFkb Inhibitors in a TNFa-induced IL8 counterscreen.; format: functional; settings: read-out: IC50_Mean
Paired box protein Pax-8 = Paired box protein Pax-8 (Homo sapiens, UniProt Q06710); assay: PAX8 transcriptional activity inhibition in RMG-I – RMG-I cells, luciferase, cherry-pick, dose response (AID 687027); format: functional, cell-based;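 also: luciferase reporter driven by Pax8 target thyroperoxidase promoter measured by SteadyGlo luminescence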
[6] = biological target: SWI/SNF-related matrix-associated actin-dependent regulator of chromatin subfamily A member 2 (Homo sapiens, UniProt P51531); assay: Luminescence-based cell-based high throughput dose response assay to identify activators of the function of SWI/SNF related, matrix associated, actin dependent regulator of chromatin, subfamily a, member 2 (SMARCA2, BRM).; format: functional
[7] = biological target: Potassium voltage-gated channel subfamily KQT member 2 (Rattus norvegicus, UniProt O88943); assay: blockers of KCNQ2 channel current – cell-based, automated electrophysiology, set II, rat KCNQ2, dose response (AID 588637); format: functional
[8] = biological target: Glyceraldehyde-3-phosphate dehydrogenase (Homo sapiens, UniProt P04406)
Glyceraldehyde-3-phosphate dehydrogenase, sequence (P04406 whole entry): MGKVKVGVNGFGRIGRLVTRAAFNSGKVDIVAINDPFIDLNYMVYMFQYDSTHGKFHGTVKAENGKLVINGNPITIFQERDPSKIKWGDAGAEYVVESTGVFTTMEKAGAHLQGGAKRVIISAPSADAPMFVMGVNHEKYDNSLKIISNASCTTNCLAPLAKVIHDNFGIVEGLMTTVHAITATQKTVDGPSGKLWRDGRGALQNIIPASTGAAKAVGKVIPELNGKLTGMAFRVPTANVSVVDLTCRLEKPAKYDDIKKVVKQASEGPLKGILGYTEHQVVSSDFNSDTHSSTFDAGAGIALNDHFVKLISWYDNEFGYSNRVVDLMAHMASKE

[9] = biological target: Nuclear receptor subfamily 5 group A member 2 (Homo sapiens, UniProt O00482); format: functional, cell-based;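 also: HEK293T cells transfected with LRH-1 and a StAR promoter luciferase reporter; potency for inhibitors that lower LRH-1 driven reporter light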
Nuclear receptor subfamily 5 group A member 2, sequence (O00482 whole entry): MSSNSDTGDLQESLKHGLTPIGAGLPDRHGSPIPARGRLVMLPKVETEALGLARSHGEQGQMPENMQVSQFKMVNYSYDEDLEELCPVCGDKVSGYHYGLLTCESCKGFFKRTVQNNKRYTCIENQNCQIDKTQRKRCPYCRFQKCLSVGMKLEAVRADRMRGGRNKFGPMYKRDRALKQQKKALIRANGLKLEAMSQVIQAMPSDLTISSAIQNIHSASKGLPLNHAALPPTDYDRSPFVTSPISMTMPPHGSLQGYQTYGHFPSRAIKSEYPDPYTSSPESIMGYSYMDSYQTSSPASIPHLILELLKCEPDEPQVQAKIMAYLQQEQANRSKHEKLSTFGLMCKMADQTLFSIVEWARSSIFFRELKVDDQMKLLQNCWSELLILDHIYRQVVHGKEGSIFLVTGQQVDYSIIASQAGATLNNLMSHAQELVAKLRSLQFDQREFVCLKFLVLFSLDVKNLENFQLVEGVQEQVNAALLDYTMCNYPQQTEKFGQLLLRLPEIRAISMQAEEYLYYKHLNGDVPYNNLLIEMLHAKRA

[10] = nonselective StAR promoter luciferase inhibitors – cell-based, luminescence, luciferase reporter, counter-screen for LRH-1 inverse agonist project, dose response (AID 651969); format: functional
Steroidogenic factor 1 = Steroidogenic factor 1 (Homo sapiens, UniProt Q13285); assay: Counterscreen for inverse agonists of the liver receptor homolog-1 (LRH-1; NR5A2): Luminescence-based cell-based high throughput dose response assay to identify inverse agonists of the Steroidogenic Factor 1 Nuclear Receptor (SF1; NR5A1).; format: functional
Steroidogenic factor 1, sequence (Q13285 whole entry): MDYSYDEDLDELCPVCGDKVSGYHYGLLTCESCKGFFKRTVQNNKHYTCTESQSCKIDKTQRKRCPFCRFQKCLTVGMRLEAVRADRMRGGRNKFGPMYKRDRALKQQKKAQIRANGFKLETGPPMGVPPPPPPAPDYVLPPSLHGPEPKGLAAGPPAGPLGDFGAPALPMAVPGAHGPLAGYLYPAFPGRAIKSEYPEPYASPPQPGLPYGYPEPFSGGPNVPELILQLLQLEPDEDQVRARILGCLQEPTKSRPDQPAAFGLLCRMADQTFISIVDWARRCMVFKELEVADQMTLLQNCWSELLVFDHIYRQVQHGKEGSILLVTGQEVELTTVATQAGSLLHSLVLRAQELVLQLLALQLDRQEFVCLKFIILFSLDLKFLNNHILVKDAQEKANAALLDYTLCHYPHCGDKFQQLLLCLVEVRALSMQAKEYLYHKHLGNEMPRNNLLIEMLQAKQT

Melanocortin receptor 4 = Melanocortin receptor 4 (Homo sapiens, UniProt P32245); assay: inhibitors of MC4R cAMP signaling – cell-based, TR-FRET, biased antagonists, dose response (AID 602298); format: functional;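 also: antagonist potency against agonist-stimulated cAMP production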
Melanocortin receptor 4, sequence (P32245 whole entry): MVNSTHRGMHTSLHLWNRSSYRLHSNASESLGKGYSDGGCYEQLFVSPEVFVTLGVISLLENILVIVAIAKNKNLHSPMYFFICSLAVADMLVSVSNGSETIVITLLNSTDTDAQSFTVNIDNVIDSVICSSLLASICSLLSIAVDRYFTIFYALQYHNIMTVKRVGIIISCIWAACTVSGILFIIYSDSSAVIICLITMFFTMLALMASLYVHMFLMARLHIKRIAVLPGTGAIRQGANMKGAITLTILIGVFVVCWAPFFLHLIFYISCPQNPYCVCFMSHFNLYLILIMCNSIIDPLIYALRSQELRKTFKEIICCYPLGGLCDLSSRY

[11] = cAMP pathway inhibition in counterscreen cell line – TR-FRET cAMP detection, counter-screen for MC4R biased antagonist project, dose response (AID 602305); format: functional, cell-based;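 also: U2OS cells stimulated with forskolin near its EC80 as the cAMP inducer; potency is for inhibition of forskolin-stimulated cAMP signaling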
[12] = viability of HCT116 lacking mutant beta-catenin – cell-based, human colon tumor, dose response (AID 1045); format: functional;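 also: HCT116 colon tumor cells with beta catenin knocked out; cells exposed to compound for 60 hours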
[13] = viability of PTEN-deleted HCT116 cells – cell-based, HCT116 PTEN knockout, dose response (AID 1047); format: functional;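 also: HCT116 colon tumor cells with PTEN knocked out; cells exposed to compound for 60 hours before readout; potency for loss of cell viability measured by luminescence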
[14] = biological target: T2, Apoptotic protease-activating factor 1 (Homo sapiens, UniProt O14727); assay: SAR analysis of small molecule Activators of Apaf-1 in a Fluorescent assay.; format: functional; settings: read-out: EC50_Mean;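 also: caspase-3 cleavage of fluorogenic Rh110 DEVD substrate downstream of apoptosome activation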
T2 sequence (O14727 whole entry): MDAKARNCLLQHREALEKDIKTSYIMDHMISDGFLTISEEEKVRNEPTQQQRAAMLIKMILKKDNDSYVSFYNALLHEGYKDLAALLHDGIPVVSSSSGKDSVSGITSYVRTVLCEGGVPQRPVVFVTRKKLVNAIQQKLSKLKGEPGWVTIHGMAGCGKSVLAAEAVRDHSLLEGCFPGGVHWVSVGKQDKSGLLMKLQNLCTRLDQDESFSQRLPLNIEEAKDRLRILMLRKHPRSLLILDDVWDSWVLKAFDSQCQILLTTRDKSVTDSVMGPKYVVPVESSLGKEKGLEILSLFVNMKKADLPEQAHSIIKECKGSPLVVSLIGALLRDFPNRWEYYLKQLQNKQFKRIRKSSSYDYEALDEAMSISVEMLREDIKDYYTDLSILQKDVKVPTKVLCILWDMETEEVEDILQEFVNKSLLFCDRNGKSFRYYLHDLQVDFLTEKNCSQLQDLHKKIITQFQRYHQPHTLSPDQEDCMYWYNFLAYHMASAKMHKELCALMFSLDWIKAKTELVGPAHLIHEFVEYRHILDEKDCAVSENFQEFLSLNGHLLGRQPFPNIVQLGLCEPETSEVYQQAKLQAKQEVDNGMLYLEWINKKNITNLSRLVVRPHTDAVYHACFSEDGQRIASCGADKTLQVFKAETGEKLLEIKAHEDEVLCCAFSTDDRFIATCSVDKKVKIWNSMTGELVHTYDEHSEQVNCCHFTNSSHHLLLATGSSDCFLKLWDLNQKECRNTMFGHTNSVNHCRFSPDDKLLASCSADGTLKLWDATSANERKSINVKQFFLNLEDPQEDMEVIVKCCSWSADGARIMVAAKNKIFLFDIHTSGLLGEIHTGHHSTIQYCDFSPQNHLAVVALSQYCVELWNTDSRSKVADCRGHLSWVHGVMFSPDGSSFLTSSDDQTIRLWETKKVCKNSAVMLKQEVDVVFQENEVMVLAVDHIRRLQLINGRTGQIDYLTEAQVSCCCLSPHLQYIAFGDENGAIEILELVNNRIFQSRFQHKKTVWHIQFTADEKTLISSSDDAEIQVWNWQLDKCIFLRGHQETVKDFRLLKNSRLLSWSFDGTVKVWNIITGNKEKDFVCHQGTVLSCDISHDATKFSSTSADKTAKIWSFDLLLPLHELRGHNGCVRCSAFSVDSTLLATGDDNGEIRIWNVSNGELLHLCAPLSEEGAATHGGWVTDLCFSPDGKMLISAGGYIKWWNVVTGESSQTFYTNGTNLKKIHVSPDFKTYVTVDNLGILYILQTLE

[15] = biological target: Hepatocyte nuclear factor 4-alpha (Homo sapiens, UniProt P41235); format: functional, cell-based;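 also: biochemical luminescence-based dose-response counterscreen measuring inhibition of HNF4 dimerization, run alongside a screen for blockers of ABHD5–perilipin-5 interaction; split luciferase complementation of HNF4 fusion proteins in cell lysate measuring dimerization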
Hepatocyte nuclear factor 4-alpha, sequence (P41235 whole entry, the tested form may be a part): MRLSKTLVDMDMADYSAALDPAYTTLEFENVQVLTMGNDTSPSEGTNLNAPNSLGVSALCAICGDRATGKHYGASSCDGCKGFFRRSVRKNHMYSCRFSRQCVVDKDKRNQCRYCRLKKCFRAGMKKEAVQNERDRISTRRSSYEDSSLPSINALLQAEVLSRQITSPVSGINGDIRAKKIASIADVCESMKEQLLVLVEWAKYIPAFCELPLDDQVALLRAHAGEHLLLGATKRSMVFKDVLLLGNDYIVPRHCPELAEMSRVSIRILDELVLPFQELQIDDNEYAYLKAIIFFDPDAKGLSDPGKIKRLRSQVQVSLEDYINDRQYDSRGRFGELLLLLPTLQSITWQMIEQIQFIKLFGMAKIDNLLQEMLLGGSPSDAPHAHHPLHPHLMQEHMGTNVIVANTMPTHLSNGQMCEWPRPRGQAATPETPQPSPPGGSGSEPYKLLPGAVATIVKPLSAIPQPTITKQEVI

[16] = biological target: Induced myeloid leukemia cell differentiation protein Mcl-1 (Homo sapiens, UniProt Q07820); format: functional
Induced myeloid leukemia cell differentiation protein Mcl-1, sequence (Q07820 whole entry): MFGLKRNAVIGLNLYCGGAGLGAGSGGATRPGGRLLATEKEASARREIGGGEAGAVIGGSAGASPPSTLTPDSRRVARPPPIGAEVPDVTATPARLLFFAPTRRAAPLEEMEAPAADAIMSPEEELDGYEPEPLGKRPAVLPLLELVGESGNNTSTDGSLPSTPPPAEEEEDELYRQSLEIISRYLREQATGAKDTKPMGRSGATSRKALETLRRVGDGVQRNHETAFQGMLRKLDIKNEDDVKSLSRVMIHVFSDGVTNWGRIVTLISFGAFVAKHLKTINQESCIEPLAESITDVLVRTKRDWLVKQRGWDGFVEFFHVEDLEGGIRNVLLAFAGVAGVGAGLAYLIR

[17] = biological target: T3, Mannose-6-phosphate isomerase (Homo sapiens, UniProt P34949); assay: MPI inhibition at elevated mannose 6-phosphate – biochemical, fluorescence intensity, high mannose 6-phosphate, primary screen (AID 1220)
T3 sequence (P34949 whole entry): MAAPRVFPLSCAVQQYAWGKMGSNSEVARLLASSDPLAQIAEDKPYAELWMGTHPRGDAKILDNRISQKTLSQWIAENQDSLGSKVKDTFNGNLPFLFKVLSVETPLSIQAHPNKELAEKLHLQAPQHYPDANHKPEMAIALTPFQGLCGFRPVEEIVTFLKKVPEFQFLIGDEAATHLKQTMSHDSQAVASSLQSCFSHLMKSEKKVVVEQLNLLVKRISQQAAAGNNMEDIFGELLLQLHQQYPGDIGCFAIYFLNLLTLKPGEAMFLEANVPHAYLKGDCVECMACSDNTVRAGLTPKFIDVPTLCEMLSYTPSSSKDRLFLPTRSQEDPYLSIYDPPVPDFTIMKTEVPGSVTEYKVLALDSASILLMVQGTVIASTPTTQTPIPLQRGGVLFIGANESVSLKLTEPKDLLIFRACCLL

Tyrosine-protein kinase JAK3, sequence (P52333 whole entry): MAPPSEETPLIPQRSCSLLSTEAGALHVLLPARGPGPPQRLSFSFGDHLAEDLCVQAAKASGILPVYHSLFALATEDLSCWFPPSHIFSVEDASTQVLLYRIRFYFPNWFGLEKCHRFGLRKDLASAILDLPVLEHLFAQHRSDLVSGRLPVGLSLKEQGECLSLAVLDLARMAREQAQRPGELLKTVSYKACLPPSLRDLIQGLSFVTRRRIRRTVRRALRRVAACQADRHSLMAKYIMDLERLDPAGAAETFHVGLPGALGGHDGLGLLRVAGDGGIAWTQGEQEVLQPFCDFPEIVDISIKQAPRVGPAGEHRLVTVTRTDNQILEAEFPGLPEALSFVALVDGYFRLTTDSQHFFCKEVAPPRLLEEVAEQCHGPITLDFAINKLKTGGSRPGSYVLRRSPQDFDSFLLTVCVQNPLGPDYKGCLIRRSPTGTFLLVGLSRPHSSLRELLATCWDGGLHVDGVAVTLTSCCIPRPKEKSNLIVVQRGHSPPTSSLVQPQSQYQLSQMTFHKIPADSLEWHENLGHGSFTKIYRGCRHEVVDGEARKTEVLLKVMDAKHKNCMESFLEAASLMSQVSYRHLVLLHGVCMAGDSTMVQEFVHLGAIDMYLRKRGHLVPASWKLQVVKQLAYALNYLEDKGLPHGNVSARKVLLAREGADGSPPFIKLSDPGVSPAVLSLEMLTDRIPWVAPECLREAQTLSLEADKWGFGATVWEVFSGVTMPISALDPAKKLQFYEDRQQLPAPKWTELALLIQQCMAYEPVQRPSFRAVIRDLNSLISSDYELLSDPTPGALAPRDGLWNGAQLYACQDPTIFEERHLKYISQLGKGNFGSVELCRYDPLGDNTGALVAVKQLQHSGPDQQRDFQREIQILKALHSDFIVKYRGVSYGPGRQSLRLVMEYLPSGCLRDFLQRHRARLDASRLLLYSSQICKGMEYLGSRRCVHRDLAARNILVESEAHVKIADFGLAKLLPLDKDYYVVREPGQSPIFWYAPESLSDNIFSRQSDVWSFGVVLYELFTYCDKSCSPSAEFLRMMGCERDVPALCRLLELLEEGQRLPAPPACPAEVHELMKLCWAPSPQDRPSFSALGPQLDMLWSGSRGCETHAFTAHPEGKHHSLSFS
Tyrosine-protein kinase JAK2, sequence (O60674 whole entry): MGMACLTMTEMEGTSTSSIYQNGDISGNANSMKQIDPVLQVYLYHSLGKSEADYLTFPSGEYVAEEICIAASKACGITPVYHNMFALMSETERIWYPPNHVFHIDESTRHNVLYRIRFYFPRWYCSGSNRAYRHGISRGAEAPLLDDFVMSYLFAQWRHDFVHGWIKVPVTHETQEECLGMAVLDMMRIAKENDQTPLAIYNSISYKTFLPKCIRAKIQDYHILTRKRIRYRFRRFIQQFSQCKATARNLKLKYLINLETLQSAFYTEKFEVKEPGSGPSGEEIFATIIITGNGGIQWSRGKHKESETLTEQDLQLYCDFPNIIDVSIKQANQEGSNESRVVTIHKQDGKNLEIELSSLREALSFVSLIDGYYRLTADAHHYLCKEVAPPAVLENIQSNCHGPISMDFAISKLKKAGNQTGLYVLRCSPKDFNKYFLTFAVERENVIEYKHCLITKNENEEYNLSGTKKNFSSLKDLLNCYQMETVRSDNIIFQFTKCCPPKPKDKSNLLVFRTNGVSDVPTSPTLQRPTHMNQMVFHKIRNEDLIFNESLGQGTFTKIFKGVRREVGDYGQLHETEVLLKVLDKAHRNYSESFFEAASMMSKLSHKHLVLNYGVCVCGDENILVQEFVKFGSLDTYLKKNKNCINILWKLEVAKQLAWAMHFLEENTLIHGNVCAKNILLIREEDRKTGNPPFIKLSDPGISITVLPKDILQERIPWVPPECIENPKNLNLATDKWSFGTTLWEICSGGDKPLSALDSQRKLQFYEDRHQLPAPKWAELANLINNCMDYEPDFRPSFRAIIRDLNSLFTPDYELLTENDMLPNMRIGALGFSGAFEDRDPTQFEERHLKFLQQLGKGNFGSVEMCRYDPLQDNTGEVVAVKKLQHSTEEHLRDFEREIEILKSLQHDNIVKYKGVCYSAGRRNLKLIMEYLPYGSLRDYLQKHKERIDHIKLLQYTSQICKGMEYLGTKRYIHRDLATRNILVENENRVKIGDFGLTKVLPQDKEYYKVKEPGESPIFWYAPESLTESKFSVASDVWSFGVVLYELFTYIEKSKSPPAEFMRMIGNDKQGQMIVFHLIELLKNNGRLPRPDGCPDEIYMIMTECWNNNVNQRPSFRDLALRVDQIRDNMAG

Ki [1]: 0.00501 µM (active) | Ki [2]: 0.00501 µM (active)
Structure (SMILES): O=c1[nH]c2cnc(-n3cnc4ccc(F)cc43)nc2n1C1CCOc2c(F)cccc21 (configuration not stated)

IC50 [7]: 1.99 µM (active) | IC50 [8]: > 100 µM (not active)
Structure (SMILES): Cc1cc(C)c(/N=C2\CCCN2Cc2ccccc2)c(C#N)c1

EC50 [14]: > 100 µM (inactive)
Structure (SMILES): COc1ccccc1NC(=O)CCS(=O)(=O)c1ccc2c(c1)NC(=O)C(C)S2 (configuration not stated)

IC50 [15]: 2.31 µM (active) | IC50 [16]: 1.13 µM (active) | IC50 [17]: > 50 µM (not active)
Structure (SMILES): CCOC(=O)c1c(C)oc2c1c(CN1CCN(CCO)CC1)c(O)c1ccccc12

More lines, now with the values behind:

Structure (SMILES): C=C1C(=O)[C@]23C[C@H]1CC[C@H]2[C@]1(C)[C@@H](OC(C)=O)CC[C@@](C)(C(=O)O)[C@H]1C[C@@H]3O
IC50 (Interleukin-8 [3]): 0.293 µM (active) | EC50 [4]: > 91.3 µM (inactive) | IC50 (Interleukin-8 [5]): > 79 µM (inactive) | AC50 (Paired box protein Pax-8): 4.07 µM (active) | EC50 [6]: > 91.3 µM (inactive)

Structure (SMILES): CCc1cc(=O)oc2c(C)c(OCC(=O)NCCN3CCOCC3)ccc12
IC50 [9]: 35.9 µM (inactive) | IC50 [10]: 35.9 µM (inactive) | IC50 (Steroidogenic factor 1): 9.97 µM (active)

Structure (SMILES): CCc1ccc(OCC(=O)NC(N=C(S)Nc2ccccc2OC)C(Cl)(Cl)Cl)cc1 (configuration not stated)
IC50 (Melanocortin receptor 4): > 64.6 µM (inactive) | IC50 [11]: > 64.6 µM (inactive) | EC50 [12]: 9.32 µM (active) | EC50 [13]: 9.76 µM (active)

Structure (SMILES): CCOC(=O)N1CCN(CCC(=O)c2ccc(OC)cc2)CC1
IC50 (Melanocortin receptor 4): > 64.5 µM (inactive) | IC50 [11]: > 64.5 µM (inactive)
